Measured values published in US20060105013A1, “Osteopontin-coated surfaces and methods of use” (priority 2000, published 2006).

What was measured:
[1] = test system: human osteoprogenitor cells; assay: Peptide binding: attachment and spreading of human osteoprogenitor cells on coated plates; format: cell-based
Method: Example 11 analyzes the binding and cell spread activity of various peptides. The activities were measured in 24-well plates that were coated overnight at 4° C. with 10 μg/ml of the indicated ligand or peptide and then blocked for one hour at room temperature with 10 mg/ml BSA (Bovine Serum Albumin) in PBS (Phosphate Buffered Saline). To preserve the integrity of the adhesion receptors osteoprogenitor cells were harvested from sub-confluent cultures by non-enzymatic cell dissociation solution (Sigma, St. Louis, Mo.). Cells were washed twice with PBS and re-suspended at a concentration of 1×10^5 cells/ml of sterile Ca^2+- and Mg^2+-free PBS, supplemented with 0.1% BSA and 1 mM sodium pyruvate. 5×10^4 cells were incubated in each well and, after one hour at 37° C., the wells were washed three times with 0.5 ml PBS to remove non-adherent cells, fixed in 1% glutaraldehyde in 0.1 M cacodylate buffer (pH 7.4) at room temperature for one hour then stained with toluidine blue and hematoxylin. The total number of attached or spread cells in each well were counted microscopically using a Nikon Eclipse microscope equipped with a Sony digital camera. Total number of attached or spread cells were quantified using an Optima 5.2 image analysis system. Each experiment was done in triplicate and is reported as mean+/−standard error. To minimize variability inherent to cell attachment studies cells were scored as attached only when a defined nucleus observed accompanied by a transition from round to cuboidal cell morphology. Round cells that are loosely attached with no defined nucleus were scored as non-attached. These cells can be removed with repeated washes. The viability of the cells was measured before and after the termination of the experiments and only data from experiments with greater than 95% cell viability were used. […] Cell spreading was determined by membrane contour analysis and was scored according to increase in cell volume/surface area. Because of this change in cell volume/surface area, cell spreading is a measure of a change in cellular development. In some experiments, cell spreading was also assessed by the formation of stress fibers. The formation of stress fibers and/or changes in cell volume/surface area are each characteristics of cells undergoing differentiation. Each experiment was performed in quadruplicate wells and repeated three times.
5000 total human osteoprogenitor cells were plated on either uncoated plates or coated and incubated at 37° C. in a humidified atmosphere (95% air, 5% CO2). After 30 minutes, unattached cells were removed and the plates were washed with PBS. The total number of attached cells was determined as described in the materials and methods. In some experiments (labeled with an “#” in Table 8), antibodies ([…]) against various integrins were incubated with the cells for 15 minutes prior to plating.

HOS cells = assay: Attachment of HOS cells to plastic, glass or chromocobalt surfaces coated with OPN; format: cell-based, human; settings: 1 hour
Method: 500 cells were plated on coated plastic, glass or chromocobalt surfaces and incubated at 37° C. in a humidified atmosphere (95% air 5% CO2). Surfaces were coated with either human recombinant phosphorylated OPN (rhOPN) or unphosphorylated OPN. Fibronectin coated surfaces were used as a control. After 1 hour, unattached cells were removed and the surfaces were washed with PBS. The total number of attached cells was determined for the total cpm released for the surfaces after the cells were lysed with 10% TCA and solubilized in 5 ml scintillation fluid. All measurements were done in triplicates.

canine model [2] = assay: Osseointegration of coated TPS dental implants in canine model (bone to implant contact, bone density); format: in vivo, dog; settings: coating 200 μg/ml
Description: Canine models allow the use of implant designs and sizes commonly used in clinical applications.
Mandibular premolars and first molars were extracted bilaterally in a total of twelve dogs. After a healing period of three months, 6 implants TPS (ITI 4.1×8 mm) were placed in each mandibular quadrant. Test coatings of rOPN and mOC-1016 and non-coated TPS control wre used. A randomized distrubution of tests and controls were incorporated.
Large hounds were used in this Example. For all surgical procedures (extractions, implant placement, suture removal), after sedation with acepromazine (0.1 mg/kgS.C.), the animals were anesthetized using pentobarbitol (20 mg/kg I.V.). Antibiotics (bicillin 200,000 u I.M.) and ibuprofen for pain control (200 mg/dog/day P.O.) were given for extraction and implant placement surgeries. For sacrifice, an overdose of pentobarbitol (50 mg/kg I.V. after sedation with acepromazine 0.1 mg/kg S.C.) was administered.
The implant and it's surrounding tissue were dissected in block, fixed in 4% formaldehyde and imbedded in PMMA. The osseointegration of the implant was measured as percent of directly apposed bone versus total implant area by contour analysis using an image analysis system. The extent of new mineralized bone (in percent) in the area between the major and minor diameter of the implant was also determined.

canine model [3] = assay: Safety assessment (serum chemistry, hematology, antibody) after coated implant treatment in dogs; format: in vivo, dog; settings: dogs with coated implants; vs baseline
Description: The issue of safety was also addressed by assessing the serum chemistry, hematology and antibody results following treatment. […] Therefore, rOPN and OC-1016 are safe based upon these evaluations.

αβ1 integrin (human) = αβ1 integrin (human) (UniProt P05556); assay: cell-based or functional assay
αvβ3 integrin (human) = αvβ3 integrin (human) (UniProt P06756); assay: cell-based or functional assay
CD44 (human) = CD44 (human) (UniProt P16070); assay: cell-based or functional assay
[4] = cells pre-incubated with Anti-CD44
[5] = cells pre-incubated with Anti-αvβ3
[6] = cells pre-incubated with Anti-αβ1

Sequence of UniProt P05556 (P05556 21-798): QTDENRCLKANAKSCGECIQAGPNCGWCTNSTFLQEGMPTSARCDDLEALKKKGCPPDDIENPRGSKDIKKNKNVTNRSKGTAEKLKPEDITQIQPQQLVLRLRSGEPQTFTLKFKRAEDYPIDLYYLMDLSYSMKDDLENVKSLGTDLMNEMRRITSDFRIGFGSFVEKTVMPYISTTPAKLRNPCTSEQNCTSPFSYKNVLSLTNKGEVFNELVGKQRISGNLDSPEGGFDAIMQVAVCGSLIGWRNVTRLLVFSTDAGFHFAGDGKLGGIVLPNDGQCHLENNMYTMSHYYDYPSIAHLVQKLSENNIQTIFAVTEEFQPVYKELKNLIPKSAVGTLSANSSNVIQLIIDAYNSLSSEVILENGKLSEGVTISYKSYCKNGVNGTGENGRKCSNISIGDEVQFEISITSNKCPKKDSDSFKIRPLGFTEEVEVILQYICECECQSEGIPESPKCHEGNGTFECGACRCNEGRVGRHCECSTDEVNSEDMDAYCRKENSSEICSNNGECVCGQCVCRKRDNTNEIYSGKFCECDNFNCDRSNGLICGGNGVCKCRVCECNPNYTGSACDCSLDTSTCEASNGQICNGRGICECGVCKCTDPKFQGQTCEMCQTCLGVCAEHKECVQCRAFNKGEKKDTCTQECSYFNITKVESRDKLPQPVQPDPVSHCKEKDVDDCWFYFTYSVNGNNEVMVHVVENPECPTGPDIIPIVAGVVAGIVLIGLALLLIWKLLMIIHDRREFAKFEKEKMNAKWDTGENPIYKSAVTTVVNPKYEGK
Sequence of UniProt P16070 (P16070 21-742): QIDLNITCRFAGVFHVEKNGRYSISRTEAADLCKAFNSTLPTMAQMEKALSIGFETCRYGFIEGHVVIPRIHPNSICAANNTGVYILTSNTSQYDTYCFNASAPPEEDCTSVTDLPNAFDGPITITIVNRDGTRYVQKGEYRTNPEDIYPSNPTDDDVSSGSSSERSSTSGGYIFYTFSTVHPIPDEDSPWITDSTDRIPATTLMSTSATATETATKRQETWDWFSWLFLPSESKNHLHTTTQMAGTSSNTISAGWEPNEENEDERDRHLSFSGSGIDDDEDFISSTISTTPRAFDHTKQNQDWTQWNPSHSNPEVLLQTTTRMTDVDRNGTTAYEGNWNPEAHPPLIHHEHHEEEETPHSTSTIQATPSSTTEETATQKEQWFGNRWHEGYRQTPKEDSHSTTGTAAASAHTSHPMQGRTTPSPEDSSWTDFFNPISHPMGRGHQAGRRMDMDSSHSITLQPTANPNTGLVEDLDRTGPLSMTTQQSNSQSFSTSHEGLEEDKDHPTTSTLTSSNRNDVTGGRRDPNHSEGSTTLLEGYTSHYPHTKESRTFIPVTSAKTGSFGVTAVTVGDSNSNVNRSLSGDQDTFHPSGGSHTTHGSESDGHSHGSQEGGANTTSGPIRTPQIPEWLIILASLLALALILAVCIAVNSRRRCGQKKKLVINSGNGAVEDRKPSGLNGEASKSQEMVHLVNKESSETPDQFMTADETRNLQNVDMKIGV
Sequence of UniProt P06756 (P06756 31-1048, chain 1 of 2): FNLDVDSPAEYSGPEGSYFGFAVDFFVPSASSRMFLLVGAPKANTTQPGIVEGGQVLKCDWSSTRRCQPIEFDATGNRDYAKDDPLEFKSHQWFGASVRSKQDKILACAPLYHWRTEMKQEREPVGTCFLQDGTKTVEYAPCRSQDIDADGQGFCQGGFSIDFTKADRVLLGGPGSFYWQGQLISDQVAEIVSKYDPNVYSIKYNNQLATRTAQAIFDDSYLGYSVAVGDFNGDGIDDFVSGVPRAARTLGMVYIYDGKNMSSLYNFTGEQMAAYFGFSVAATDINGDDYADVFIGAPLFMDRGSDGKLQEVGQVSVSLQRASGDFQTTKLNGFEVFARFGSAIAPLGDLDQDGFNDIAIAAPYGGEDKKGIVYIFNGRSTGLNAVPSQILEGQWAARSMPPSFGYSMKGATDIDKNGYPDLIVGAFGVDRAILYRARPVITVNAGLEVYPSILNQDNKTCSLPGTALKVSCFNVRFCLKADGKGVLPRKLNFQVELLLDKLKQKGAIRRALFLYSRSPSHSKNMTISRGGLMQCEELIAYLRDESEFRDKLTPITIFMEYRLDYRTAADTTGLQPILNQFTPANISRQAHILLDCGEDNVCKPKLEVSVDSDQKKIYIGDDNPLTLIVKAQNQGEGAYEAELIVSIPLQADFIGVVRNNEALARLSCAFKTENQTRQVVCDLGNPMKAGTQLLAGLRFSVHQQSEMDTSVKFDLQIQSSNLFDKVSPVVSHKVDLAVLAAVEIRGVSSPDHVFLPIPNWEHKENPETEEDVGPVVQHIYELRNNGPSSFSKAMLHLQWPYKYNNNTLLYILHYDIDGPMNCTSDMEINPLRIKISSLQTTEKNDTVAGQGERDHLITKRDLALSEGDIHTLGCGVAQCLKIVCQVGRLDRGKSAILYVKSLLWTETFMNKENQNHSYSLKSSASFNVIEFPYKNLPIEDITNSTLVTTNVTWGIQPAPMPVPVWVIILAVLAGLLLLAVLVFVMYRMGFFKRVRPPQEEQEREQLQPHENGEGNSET
Sequence of UniProt P06756 (P05106 27-788, chain 2 of 2, further chain): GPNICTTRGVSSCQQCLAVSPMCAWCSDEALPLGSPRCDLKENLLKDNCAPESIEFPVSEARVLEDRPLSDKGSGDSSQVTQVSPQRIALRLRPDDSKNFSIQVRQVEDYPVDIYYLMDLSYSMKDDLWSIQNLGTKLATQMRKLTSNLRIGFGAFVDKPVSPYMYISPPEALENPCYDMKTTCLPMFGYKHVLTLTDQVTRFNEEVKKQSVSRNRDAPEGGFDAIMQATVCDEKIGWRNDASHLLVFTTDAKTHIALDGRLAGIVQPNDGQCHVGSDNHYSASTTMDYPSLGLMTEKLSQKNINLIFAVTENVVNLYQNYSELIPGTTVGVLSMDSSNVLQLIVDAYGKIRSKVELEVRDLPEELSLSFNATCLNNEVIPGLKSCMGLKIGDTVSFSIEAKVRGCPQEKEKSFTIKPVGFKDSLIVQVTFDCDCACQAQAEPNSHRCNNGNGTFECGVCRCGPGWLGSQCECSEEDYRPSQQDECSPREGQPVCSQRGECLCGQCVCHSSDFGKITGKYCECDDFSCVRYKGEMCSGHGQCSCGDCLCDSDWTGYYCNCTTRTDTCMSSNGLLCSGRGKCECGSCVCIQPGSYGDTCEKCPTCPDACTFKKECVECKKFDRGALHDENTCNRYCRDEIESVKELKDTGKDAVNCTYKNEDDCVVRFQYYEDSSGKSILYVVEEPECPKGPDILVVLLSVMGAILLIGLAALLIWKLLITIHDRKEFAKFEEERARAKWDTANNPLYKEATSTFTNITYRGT

| Substance | % Spread ([1]; no antibody, coated plates) | % total attached cells ([1]; no antibody, coated plates) | % total attached (HOS cells; Plastic surface) | % total attached (HOS cells; chromocobalt (CrCo) surface) | % total attached (HOS cells; glass surface) | Mean Percent Bone Density (canine model [2]; 4 weeks) | Mean Percent Bone to Implant Contact (canine model [2]; 4 weeks) | Mean Percent Bone to Implant Contact (canine model [2]; 12 weeks) | also measured |
| --- | --- | --- | --- | --- | --- | --- | --- | --- | --- |
| DTFTPIVPTVDVPNGRFDSLAYGLKSKSKKFQ [SEQ ID NO: 13] | 100.0% | 91.1% |  |  |  |  |  |  |  |
| Osteopontin: osteopontin used to coat plates in Table 8; form not specified | 78.4% | 78.4% |  |  |  |  |  |  | % Spread [1, 4]: 46.4%; % total attached cells [1, 4]: 66%; % Spread [1, 5]: 24.8%; % total attached cells [1, 5]: 69.2%; % Spread [1, 6]: 56.6%; % total attached cells [1, 6]: 74.8% |
| OPN: Table 2: unphosphorylated OPN used as surface coating |  |  | 43.6% | 4% | 37.2% | 70.5% | 65.6% | 62.5% | Mean Percent Bone Density (canine model [2]; 12 weeks): 56.9% |
| Fibronectin [reference compound] |  |  | 91.6% | 54.8% | 89.6% |  |  |  |  |
| rOPN: Recombinant Osteopontin coated on TPS dental implants; printed as OPN in Tables 4-7 |  |  |  |  |  | 70.9% | 65.6% | 62.5% | serum chemistry, hematology and antibody results following treatment (canine model [3]): no clinically significant differences from baseline |
| Osteopontin (from UniProt P10451 17-314) (ligand) |  |  |  |  |  |  |  |  | % Spread (# Anti-αβ1) (αβ1 integrin (human)): 56.6%; % total attached cells (# Anti-αβ1) (αβ1 integrin (human)): 74.8%; % Spread (# Anti-αvβ3) (αvβ3 integrin (human)): 24.8%; % total attached cells (# Anti-αvβ3) (αvβ3 integrin (human)): 69.2%; % Spread (# Anti-CD44) (CD44 (human)): 46.4%; % total attached cells (# Anti-CD44) (CD44 (human)): 66% |
